Test results from patent US12012408B2, “Purine compounds and method for the treatment of cancer” (THE ROYAL INSTITUTION FOR THE ADVANCEMENT OF …, priority 2018, dated 2024).

Experiments:
[1] = test system: MDA-MB-231 and BT-20 cells; experiment: Propidium iodide staining and flow cytometry of DNA content; format: cell-based; conditions: treatment for 24 hours; FIG. 6C
Description: Cells were seeded into six-well plates and treated with the indicated concentration of SLLN-15 for 24 hours. After harvesting, cells were fixed in 80% methanol at −20° C. overnight. The fixed cells were washed twice with cold phosphate-buffered saline (PBS), incubated for 1 hour with 0.1% Triton X-100 and 0.5 μg/ml RNase A, and then stained with propidium iodide (PI) (Sigma) at a final concentration of 10 μg/ml in the dark at 4° C. until analysis. The fluorescent signal was detected through the FL-2 channel using FACSCalibur flow cytometry (Becton Dickson), and the proportion of DNA in various phases was analyzed using FCS Express version 3.0 (De novo Software, Glendale, California, USA)

[2] = test system: MDA-MB-231-M2 or 4T1 tumors; experiment: In vivo anti-metastatic activity in tumor-bearing mice
Text: Breast cancer stem-like cells (BCSCs), heterogeneously subsisting as CD24low/CD44high and ALDHhigh subpopulations, are enriched in aggressive breast cancer subtypes and believed to be responsible for driving metastatic colonization. Despite evidence of a clinical association between BCSC and poor prognosis, effective therapeutic means to target this cell population is lacking. We identified SLLN-15 as a compound with selective anti-sternness activity across a panel of cell lines expressing ALDHhigh and CD24low/CD44high markers, including MDA-MB-231, SUM-149PT, BT-20, SKBR3, 4T1 and several anaplastic thyroid cell lines. […] In summary, our data foster that targeting regulatory networks driving sternness represent important therapeutic targets for treating metastatic breast disease.

With `c1nc2nc(Nc3ccc(N4CC[Se]CC4)cc3)nc(N[C@H]3CC[Se]C3)c2[nH]1` [SLLN-15] the “apoptosis (sub-G1 phase)” value [1] was “no obvious apoptosis”, the “cells arrested in G2/M phase and polyploidy (>4N)” value [1] was “significantly higher percentage” and the anti-metastatic activity ([2]; mice bearing MDA-MB-231-M2 or 4T1 tumors, administered intraperitoneally) was “significant anti-metastatic activity”. For the same compound, the “MDA-MB-231-M2 progression to metastasis” value ([2]; pretreatment ex vivo prior to mouse implantation) was “significantly attenuated”.
